# Measurements as given in US9895344B2, “Treating various disorders with 7,8-dihydroxyflavone and derivatives thereof” (EMORY UNIVERSITY, priority 2008, dated 2018).
# Experiments:
# TrkB ECD truncates [1] = target: T1, TrkB ECD truncates (Rattus norvegicus, UniProt Q63604); test: Mapping assay with TrkB ECD truncation mutants; assay type: binding; conditions: FIG. 18
# T1 construct: made in house
# Procedure: (§1) BDNF is known to bind to the region of the TrkB ECD that contains the third leucine-rich motif (LRM), the second cysteine cluster (CC) domain, and the Immunoglobulin 2 (Ig2) domain (Haniu et al., J. Biol. Chem., 272:25296-303, 1997). To map where 7,8-dihydroxyflavone binds on the TrkB ECD, truncation mutants of the ECD were made and in vitro binding assays were conducted.
# TrkB ECD truncates [2] = test: Mapping assay with TrkB ECD truncation mutants; assay type: binding; conditions: FIG. 18
# Procedure: as §1
# [3] = system: KA-induced apoptosis in hippocampus; test: Kainic acid-induced apoptosis in mouse hippocampus (TUNEL); assay type: in vivo, C57BL/6 mice; conditions: 5 mg/kg intraperitoneally followed by 20 mg/kg KA, 5 days, FIG. 19
# Source text: Kainic acid (KA) is a potent agonist for the AMPA receptor. Peripheral injections of KA result in recurrent seizures and the subsequent degeneration of select populations of neurons in the hippocampus (Schauwecker and Steward, Proc. Natl. Acad. Sci. USA, 94:4103-8, 1997). KA induces neuronal cell death in a caspase-dependent and independent manners (Faherty et al., Brain Res. Mol. Brain. Res., 70:159-63, 1999; Glassford et al., Neurol. Res., 24:796-800, 2002; Liu et al., Mol. Cell, 29:665-78, 2008). To explore whether 7,8-dihydroxyflavone can block the neurotoxicity initiated by KA, C57BL/6 mice aged 60 days were intraperitoneally injected with either a single dose of 20% DMSO in saline, 20 mg/kg KA (Sigma), or 5 mg/kg of 7,8-dihydroxyflavone followed by 20 mg/kg of KA. In 5 days, the mice were anesthetized, perfused with 4% paraformaldehyde in 0.1M phosphate buffered saline, and the brains were removed, post-fixed overnight, and processed for paraffin embedding. Serial sections of the brain were cut to a thickness of 5 μm and mounted on slides (Superfrost-plus, Fisher; Pittsburgh, Pa.).
# TrkB [4] = target: T2, TrkB (Mus musculus, UniProt P15209); test: Trk activation in wild-type and TrkC knockout cortical neurons: TrkB; assay type: cell-based, mice; conditions: FIG. 22
# T2 construct: from tissue; host or cells: mouse brain
# Procedure: To further assess whether 7,8-dihydroxyflavone blocks neuronal apoptosis in a TrkB dependent manner, cortical neurons were prepared from homozygous pups of TrkC+/−mice, which were mated to the same genotype. […] Glutamate weakly stimulated both TrkA and TrkB faint phosphorylation regardless of TrkC genotype (FIG. 22, rows 1 and 3). The spontaneous caspase-3 activation in TrkC−/− neurons was suppressed by 7,8-dihydroxyflavone (FIG. 22, row 5).
# TrkB F616A = target: T3, TrkB F616A (Mus musculus, UniProt P15209, F616A); test: TrkB phosphorylation in cortical neurons from TrkB F616A knockin mice; assay type: cell-based; conditions: 0.5 μM, 30 minutes, FIG. 23
# T3 construct: endogenous in cells; host or cells: cortical neurons of TrkB F616A knock-in mice
# Procedure: To explore whether the neuroprotective action of 7,8-dihydroxyflavone is dependent on TrkB activation in vivo, TrkB F616A knockin mice were used. […] To further assess whether 7,8-dihydroxyflavone can mimic BDNF, cortical neurons were prepared from TrkB F616A knockin mice. The cortical neurons were pretreated for 30 minutes with either K252a Trk tyrosine kinase inhibitor (100 nM) or 1NMPP1 inhibitor (100 nM) followed by 0.5 μM 7,8-dihydroxyflavone for 30 minutes.
# immobility = test: Forced swim test, 5 days intraperitoneal; assay type: in vivo, mice; conditions: intraperitoneally for 5 days; imipramine 20 mg/kg, amitryptyline 15 mg/kg, 7,8-dihydroxyflavone 5 mg/kg; FIG. 25
# Procedure: Adult male mice (2-3 months old, n=8) were randomly submitted, without a pre-swim, to a forced swim test of 6 minutes with immobility recorded in the last 4 minutes. Mice were injected intraperitoneally for 5 days with saline, imipramine (20 mg/kg), amitryptyline (15 mg/kg), or 7,8-dihydroxyflavone (5 mg/kg). The mice were allowed to adapt to the test room for 2 days, and the mice were placed in a clear glass cylinder with a diameter of 16 cm, half-filled with clear water at 24° C. […] Data are presented as mean±SEM; *p<0.05 against vehicle, **P<0.01 against vehicle and ***P<0.0001 against vehicle, student t-test.
# [5] = system: KA-induced caspase-3 activation; test: KA-induced neuronal cell death in TrkB F616A mice, oral TrkB agonists; assay type: in vivo, TrkB F616A knock-in mice
# Procedure: TrkB F616A knockin mice (2-3 months old) were fed 1NMPP1 (25 μM) in drinking water one day before pharmacological reagent treatment. The next day, the mice were orally injected with 7,8-DHF or 4′-DMA-7,8-DHF (5 mg/kg) 4 hours before kainic acid (20 mg/kg). The control mice were injected with saline, 1NMPP1, kainic acid alone or administrated 7,8-DHF or 4′-DMA-7,8-DHF 4 hours before kainic acid. In 4 days, the mice were sacrificed and brains were homogenized and ultra-centrifuged. The supernatant (40 μg) was employed for SDS-PAGE and immunoblotting analysis with indicated antibodies, respectively.
# To explore whether the neuroprotective effect of these small molecules is dependent on TrkB activation in vivo, TrkB F616A knock-in mice were used.
# TrkB [6] = target: TrkB (Rattus norvegicus, UniProt Q63604); test: Immunofluorescent staining of hippocampal neurons with anti-phospho TrkB antibody; assay type: cell-based; set-up: endogenous in cells; host or cells: primary hippocampal neurons; conditions: 1 μM, 30 minutes, FIG. 8
# Procedure: Primary hippocampal neurons were seeded on poly-L lysine coated coverslips in a 12-well plate. After 7 days in vitro, the neurons were treated with 100 ng/ml BDNF or variety of flavone compounds (1 μM) for 30 minutes, and then washed with PBS. Cells were fixed with 3% formaldehyde in PBS at room temperature for 10 minutes. The cells were then permeabilized and blocked by 0.4% Triton X-100 and 2% FBS in PBS at room temperature for 15 minutes, washed with PBS three times and treated with anti-MAP2 (1:200) and anti-phospho-TrkB antibodies (1:500). After staining with FITC- or Rhodamine-conjugated secondary antibody, the coverslips were mounted on slides. Fluorescent images were taken by OLYMPUS IX71 fluorescence microscope (Olympus; Center Valley, Pa.).
# BDNF binding to TrkB induces its autophosphorylation and, subsequently, activation of downstream kinase pathways including MAPK and PI3/Akt. To explore whether 7,8-dihydroxyflavone triggers TrkB activation, immunofluorescent staining on hippocampal neurons with anti-phospho TrkB antibody was conducted.
# T2 sequence (P15209 32-821): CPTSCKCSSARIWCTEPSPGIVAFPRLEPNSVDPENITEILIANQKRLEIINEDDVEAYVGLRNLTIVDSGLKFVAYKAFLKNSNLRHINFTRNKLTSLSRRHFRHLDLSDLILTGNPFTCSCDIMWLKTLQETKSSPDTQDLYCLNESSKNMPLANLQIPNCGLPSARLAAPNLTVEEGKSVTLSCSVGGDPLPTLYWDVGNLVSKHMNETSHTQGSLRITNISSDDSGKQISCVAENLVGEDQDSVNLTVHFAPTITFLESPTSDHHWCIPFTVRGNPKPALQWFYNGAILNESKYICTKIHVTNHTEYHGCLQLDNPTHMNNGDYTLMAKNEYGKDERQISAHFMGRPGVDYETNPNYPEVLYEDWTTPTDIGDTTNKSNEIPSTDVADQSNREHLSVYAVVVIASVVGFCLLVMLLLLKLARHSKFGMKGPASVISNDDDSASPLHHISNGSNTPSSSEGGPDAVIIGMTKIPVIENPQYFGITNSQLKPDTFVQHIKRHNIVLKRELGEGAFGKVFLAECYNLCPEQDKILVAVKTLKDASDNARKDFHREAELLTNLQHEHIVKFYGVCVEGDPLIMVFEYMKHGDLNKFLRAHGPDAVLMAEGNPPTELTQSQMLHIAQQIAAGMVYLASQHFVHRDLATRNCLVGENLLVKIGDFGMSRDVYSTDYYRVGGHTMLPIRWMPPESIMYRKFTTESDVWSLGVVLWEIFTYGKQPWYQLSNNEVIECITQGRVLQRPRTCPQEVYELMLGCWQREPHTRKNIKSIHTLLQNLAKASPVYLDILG
# T3 sequence (P15209 32-821 F616A): as the sequence (P15209 32-821) above, with F585A counted along it
# Chain of TrkB (Rattus norvegicus, UniProt Q63604) (Q63604 32-821): as the sequence (P15209 32-821) above, with T3M, S9T, A10T, V32I, R63K, S84G, M153T, L185I, S394T, S770N counted along it
structure (smiles),measurement,setting,value
"O=c1cc(-c2ccccc2)oc2c(O)c(O)ccc12 [7,8-dihydroxyflavone]",association with the ECD,TrkB ECD truncates [1],strongly associated
same,binding to the ICD,TrkB ECD truncates [1],did not bind
same,association with the CC-2 domain,TrkB ECD truncates [2],strongly associated
same,association with the LRM-domain,TrkB ECD truncates [2],associated less strongly
same,binding to the CC-1 domain,TrkB ECD truncates [2],did not bind
same,KA-induced apoptosis in hippocampus,[3],decreased KA-induced apoptosis
same,TrkB activation in wild-type and TrkC knockout neurons,TrkB [4],provoked TrkB
same,activation of TrkB F616A,TrkB F616A,selectively activates TrkB F616A
same,swimming immobility,immobility,reduced the immobility
same,KA-caused caspase-3 activation,"[5]; 5 mg/kg orally 4 hours before kainic acid (20 mg/kg), FIG. 31",markedly diminished
same,protective effect after 1NMPP1 pretreatment,"[5]; 1NMPP1 (25 μM) in drinking water, FIG. 31 top",abolished
same,TrkB phosphorylation after 1NMPP1 pretreatment,"[5]; FIG. 31, 2nd panel",notably blocked
same,TrkB tyrosine phosphorylation (immunofluorescence),TrkB [6],provoked TrkB tyrosine phosphorylation similar to BDNF
